Data published in ChEMBL document CHEMBL4813973, “Discovery of novel N-benzylbenzamide derivatives as tubulin polymerization inhibitors with potent antitumor activities” (Eur J Med Chem, 2021).
Calls of active or inactive are those of the source. The calls are words filed in the database; no cut-off is given here.

Assays:
[1] = system: A-431; experiment: Induction of apoptosis in human A-431 cells assessed as chromatin condensation at 7.5 to 30 nM incubated for 48 hrs by Hoechst33342 staining based fluorescent microscopy; assay type: functional, cell-based; details: dose 7.5-30 nM
[2] = Induction of mitochondria membrane potential loss in human A-431 cells assessed as red fluorescence intensity at 15 nM incubated 48 hrs by JC-1 probe based flow cytometry analysis (reference value: 93.83%); assay type: functional
[3] = system: A-431; experiment: Antiproliferative activity against human A-431 cells assessed as reduction in cell viability incubated for 72 hrs by MTT assay; assay type: functional, cell-based; details: A-431, 72 h
[4] = system: L02; experiment: Cytotoxicity against human L02 cells assessed as reduction in cell viability incubated for 72 hrs by MTT assay; assay type: cell-based; details: L02, 72 h
[5] = system: Bel-7402; experiment: Antiproliferative activity against human Bel-7402 cells assessed as reduction in cell viability incubated for 72 hrs by MTT assay; assay type: functional, cell-based; details: Homo sapiens, Bel-7402, 72 h; read-out: IC50
[6] = system: HCT-8; experiment: Antiproliferative activity against taxol-resistant human HCT-8 cells assessed as reduction in cell viability incubated for 72 hrs by MTT assay; assay type: functional, cell-based; details: Homo sapiens, HCT-8, 72 h; read-out: IC50
[7] = Resistant index, ratio of IC50 for VCR resistant human K562 cells to IC50 for human K562 cells; assay type: functional
[8] = n-Octanol/water partition coefficient, logD of the compound incubated for 24 hrs at pH 7.4 by HPLC analysis; assay type: physicochemical
[9] = system: A-431; experiment: Anti-microtubule activity in human A-431 cells assessed as disruption of microtubule network at 7.5 to 30 nM incubated for 24 hrs by DAPI staining based confocal microscopic analysis; assay type: functional, cell-based; details: dose 7.5-30 nM
[10] = system: A-431; experiment: Anti-microtubule activity in human A-431 cells assessed as loss of cellular structure at 7.5 to 30 nM incubated for 24 hrs by DAPI staining based confocal microscopic analysis; assay type: functional, cell-based; details: dose 7.5-30 nM
[11] = system: A-431; experiment: Induction of cell cycle arrest in human A-431 cells assessed as accumulation at G1 phase at 7.5 nM after 48 hrs by propidium iodide staining based flow cytometry (reference value: 41.16%); assay type: functional
[12] = system: A-431; experiment: Induction of cell cycle arrest in human A-431 cells assessed as accumulation at S phase at 7.5 nM after 48 hrs by propidium iodide staining based flow cytometry (reference value: 46.57%); assay type: functional
[13] = system: A-431; experiment: Induction of cell cycle arrest in human A-431 cells assessed as accumulation at S phase at 15 nM after 48 hrs by propidium iodide staining based flow cytometry (reference value: 46.57%); assay type: functional
[14] = system: A-431; experiment: Induction of cell cycle arrest in human A-431 cells assessed as accumulation at S phase at 30 nM after 48 hrs by propidium iodide staining based flow cytometry (reference value: 46.57%); assay type: functional
[15] = system: A-431; experiment: Cell cycle arrest in human A-431 cells assessed as downregulation of cdc2 expression by Western blot analysis; assay type: functional, cell-based; details: dose 7.5-30 nM
[16] = system: A-431; experiment: Induction of apoptosis in human A-431 cells assessed as viable cells at 7.5 nM after 48 hrs by Annexin-V-APC/PI-staining based flow cytometric analysis (reference value: 93.37%); assay type: functional; details: read-out: Activity
[17] = system: A-431; experiment: Induction of apoptosis in human A-431 cells assessed as necrotic cells at 7.5 nM after 48 hrs by Annexin-V-APC/PI-staining based flow cytometric analysis (reference value: 3.79%); assay type: functional
[18] = system: A-431; experiment: Induction of apoptosis in human A-431 cells assessed as viable cells at 15 nM after 48 hrs by Annexin-V-APC/PI-staining based flow cytometric analysis (reference value: 93.37%); assay type: functional; details: read-out: Activity
[19] = system: A-431; experiment: Induction of apoptosis in human A-431 cells assessed as early apoptotic cells at 15 nM after 48 hrs by Annexin-V-APC/PI-staining based flow cytometric analysis (reference value: 0.82%); assay type: functional
[20] = system: A-431; experiment: Induction of apoptosis in human A-431 cells assessed as late apoptotic cells at 15 nM after 48 hrs by Annexin-V-APC/PI-staining based flow cytometric analysis (reference value: 2.02%); assay type: functional
[21] = system: A-431; experiment: Induction of apoptosis in human A-431 cells assessed as necrotic cells at 15 nM after 48 hrs by Annexin-V-APC/PI-staining based flow cytometric analysis (reference value: 3.79%); assay type: functional
[22] = system: A-431; experiment: Induction of apoptosis in human A-431 cells assessed as viable cells at 30 nM after 48 hrs by Annexin-V-APC/PI-staining based flow cytometric analysis (reference value: 93.37%); assay type: functional; details: read-out: Activity
[23] = system: A-431; experiment: Induction of apoptosis in human A-431 cells assessed as early apoptotic cells at 30 nM after 48 hrs by Annexin-V-APC/PI-staining based flow cytometric analysis (reference value: 0.82%); assay type: functional
[24] = system: A-431; experiment: Induction of apoptosis in human A-431 cells assessed as late apoptotic cells at 30 nM after 48 hrs by Annexin-V-APC/PI-staining based flow cytometric analysis (reference value: 2.02%); assay type: functional
[25] = system: A-431; experiment: Induction of apoptosis in human A-431 cells assessed as necrotic cells at 30 nM after 48 hrs by Annexin-V-APC/PI-staining based flow cytometric analysis (reference value: 3.79%); assay type: functional
[26] = system: A-431; experiment: Induction of apoptosis in human A-431 cells assessed as upregulation of Bax protein expression by western blot analysis; assay type: functional, cell-based; details: dose 7.5-30 nM
[27] = system: A-431; experiment: Induction of apoptosis in human A-431 cells assessed as downregulation of Bcl2 protein expression by western blot analysis; assay type: functional, cell-based; details: dose 7.5-30 nM
[28] = system: A-431; experiment: Induction of apoptosis in human A-431 cells assessed as increase in cleaved PARP expression at 7.5 to 30 nM by western blot analysis; assay type: functional, cell-based; details: dose 7.5-30 nM
[29] = Induction of mitochondria membrane potential loss in human A-431 cells assessed as red fluorescence intensity at 30 nM incubated for 48 hrs by JC-1 probe based flow cytometry analysis (reference value: 93.83%); assay type: functional
[30] = Induction of mitochondria membrane potential loss in human A-431 cells assessed as green fluorescence intensity at 30 nM incubated for 48 hrs by JC-1 probe based flow cytometry analysis (reference value: 5.98%); assay type: functional
[31] = system: H22; experiment: Antitumor activity against […] xenografted in ICR mouse assessed as reduction of tumor weight at 20 mg/kg/day, iv for 21 days; assay type: functional; details: 504 h, time 21 day
[32] = system: H22; experiment: Antitumor activity against […] xenografted in ICR mouse assessed as reduction of tumor weight at 10 mg/kg/day, iv for 21 days; assay type: functional; details: 504 h, time 21 day
[33] = system: HUVEC; experiment: Antivascular activity in HUVEC assessed as inhibition of migration activity at 30 nM measured after 24 hrs by wound healing based phase contrast microscopic analysis; assay type: functional, cell-based; details: Homo sapiens
[34] = system: HepG2; experiment: cells; details: Homo sapiens, HepG2, 72 h

COc1ccc(CNC(=O)c2cc(F)ccc2N2CCOCC2)cc1O
Activity [1]: Active
Activity [2]: 54.43%
IC50 [3]: 0.014 µM
IC50 [4]: 0.112 µM
IC50 [5]: 0.027 µM
IC50 [6]: 0.106 µM
Ratio IC50 [7]: 10.8
logD at 24 h [8]: 1.61
Activity [9]: Active
Activity [10]: Active
Activity [11]: 46.14%
Activity [12]: 40.02%
Activity [13]: 22.59%
Activity [14]: 18.54%
Activity [15]: Dose-Dependent Effect
viability at 0.0075 µM [16]: 71%
Activity [17]: 8.23%
viability at 0.015 µM [18]: 45.4%
Activity [19]: 18.35%
Activity [20]: 26.43%
Activity [21]: 9.79%
viability at 0.03 µM [22]: 26.5%
Activity [23]: 34.02%
Activity [24]: 32.12%
Activity [25]: 7.35%
Activity [26]: Dose-Dependent Effect
Activity [27]: Dose-Dependent Effect
Activity [28]: Active
Activity [29]: 33.88%
Activity [30]: 65.96%
inhibition in vivo at 20 mg/kg/day [31]: 66%
inhibition in vivo at 10 mg/kg/day [32]: 50.3%
Activity [33]: Active
IC50 [34]: 0.025 µM
